Experimental data reported in ChEMBL document CHEMBL1121436, “2,4-Diamino-5-benzylpyrimidines as antibacterial agents. 4. 6-Substituted trimethoprim derivatives from phenolic Mannich intermediates. Application to the synthesis of trimethoprim and 3,5-dialkylbenzyl analogues” (J Med Chem, 1980).
In brackets after ≈: the same amount, converted by molar mass.

Experiments:
[1] = target: T1, Bifunctional dihydrofolate reductase-thymidylate synthase (Plasmodium berghei str. ANKA, UniProt Q27713); assay: Compound was tested for its inhibition against dihydrofolate reductase enzyme of Plasmodium berghei; settings: read-out: I50
T1 sequence (Q27713 whole entry): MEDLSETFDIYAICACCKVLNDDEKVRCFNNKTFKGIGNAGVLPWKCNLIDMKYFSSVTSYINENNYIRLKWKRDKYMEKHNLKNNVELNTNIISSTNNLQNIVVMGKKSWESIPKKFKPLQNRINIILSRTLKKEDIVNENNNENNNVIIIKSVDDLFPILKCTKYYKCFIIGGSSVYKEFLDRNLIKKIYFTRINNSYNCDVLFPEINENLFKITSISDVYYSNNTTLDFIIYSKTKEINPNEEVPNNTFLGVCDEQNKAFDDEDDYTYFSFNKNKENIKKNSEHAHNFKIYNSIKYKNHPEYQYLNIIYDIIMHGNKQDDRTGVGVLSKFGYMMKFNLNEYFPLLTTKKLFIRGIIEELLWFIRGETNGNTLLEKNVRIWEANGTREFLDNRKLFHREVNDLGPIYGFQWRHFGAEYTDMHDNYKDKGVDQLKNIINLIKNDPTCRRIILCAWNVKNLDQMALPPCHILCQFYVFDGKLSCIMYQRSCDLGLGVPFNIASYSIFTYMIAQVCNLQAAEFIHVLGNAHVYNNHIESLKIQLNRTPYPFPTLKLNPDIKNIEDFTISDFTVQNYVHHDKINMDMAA

Dihydrofolate reductase = target: T2, Dihydrofolate reductase (Rattus norvegicus, UniProt Q920D2); assay: Inhibition against dihydrofolate reductase enzyme of rat liver; settings: read-out: I50
T2 sequence (Q920D2 whole entry): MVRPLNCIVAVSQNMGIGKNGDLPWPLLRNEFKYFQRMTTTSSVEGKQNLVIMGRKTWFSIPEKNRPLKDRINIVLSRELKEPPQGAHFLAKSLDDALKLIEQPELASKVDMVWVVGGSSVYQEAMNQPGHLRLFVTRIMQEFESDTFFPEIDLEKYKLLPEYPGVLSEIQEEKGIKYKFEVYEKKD

[2] = target: T1, Bifunctional dihydrofolate reductase-thymidylate synthase; assay: Tested for the inhibition of Plasmodium berghei dihydrofolate reductase enzyme; settings: read-out: I50
Escherichia coli = assay: Tested for antibacterial activity against Escherichia coli CN314; type: functional
Proteus vulgaris = assay: Tested for antibacterial activity against Proteus vulgaris CN329; type: functional
Shigella dysenteriae = assay: Tested for antibacterial activity against Shigella dysentariae CN1513; type: functional
Staphylococcus aureus [3] = assay: Tested for antibacterial activity against Staphylococcus aureus CN491; type: functional
Salmonella = assay: Tested for antibacterial activity against Salmonella typhi CN512; type: functional, salmonella typhosa
Streptococcus pyogenes = assay: Tested for antibacterial activity against Streptococcus pyogenes CN10; type: functional
Staphylococcus aureus [4] = assay: Tested for antibacterial activity against Staphylococcus aureus CN491

Structure (SMILES): CCCc1nc(N)nc(N)c1Cc1cc(OC)c(O)c(OC)c1
- IC50 [1]: 1.5 µM

Structure (SMILES): COc1cc(Cc2c(N)nc(N)nc2N)cc(OC)c1OC
- IC50 (Dihydrofolate reductase): > 900 µM

Structure (SMILES): COc1cc(Cc2c(N)nc(N)nc2-c2ccccc2)cc(OC)c1O
- IC50 (Dihydrofolate reductase): > 45 µM

Structure (SMILES): COc1cc(Cc2c(N)nc(N)nc2SC)cc(OC)c1OC
- IC50 [2]: 20 µM

Structure (SMILES): CCCc1nc(N)nc(N)c1Cc1cc(OC)c(OC)c(OC)c1
- IC50 (Dihydrofolate reductase): 1500 µM

Structure (SMILES): COc1cc(Cc2c(N)nc(N)nc2OC)cc(OC)c1OC
- IC50 (Dihydrofolate reductase): > 100 µM
- MIC (Escherichia coli): > 500 µg/mL
- MIC (Proteus vulgaris): > 500 µg/mL
- MIC (Shigella dysenteriae): > 500 µg/mL
- MIC (Staphylococcus aureus [3]): 125 µg/mL (≈ 390 µM)
- MIC (Salmonella): > 500 µg/mL
- MIC (Streptococcus pyogenes): 8 µg/mL (≈ 25 µM)

Structure (SMILES): COc1cc(Cc2c(N)nc(N)nc2Oc2ccccc2)cc(OC)c1OC
- MIC (Escherichia coli): > 500 µg/mL
- MIC (Proteus vulgaris): > 500 µg/mL
- MIC (Shigella dysenteriae): > 500 µg/mL
- MIC (Salmonella): > 500 µg/mL
- MIC (Streptococcus pyogenes): > 500 µg/mL
- MIC (Staphylococcus aureus [4]): > 500 µg/mL

Structure (SMILES): COc1c(C(C)(C)C)cc(Cc2c(N)nc(N)nc2SC)cc1C(C)(C)C
- MIC (Escherichia coli): > 500 µg/mL
- MIC (Proteus vulgaris): > 500 µg/mL
- MIC (Shigella dysenteriae): > 500 µg/mL
- MIC (Salmonella): > 500 µg/mL
- MIC (Streptococcus pyogenes): > 500 µg/mL
- MIC (Staphylococcus aureus [4]): > 500 µg/mL

Structure (SMILES): COc1cc(Cc2c(C)nc(N)nc2N)cc(OC)c1OC
- IC50 [1]: 0.34 µM
- IC50 (Dihydrofolate reductase): > 400 µM

Structure (SMILES): COc1cc(Cc2c(C)nc(N)nc2N)cc(OC)c1O
- IC50 [1]: 0.48 µM

Structure (SMILES): COc1cc(Cc2c(N)nc(N)nc2-c2ccccc2)cc(OC)c1OC
- IC50 (Dihydrofolate reductase): > 400 µM
- MIC (Escherichia coli): 250 µg/mL (≈ 682 µM)
- MIC (Proteus vulgaris): > 500 µg/mL
- MIC (Shigella dysenteriae): 125 µg/mL (≈ 341 µM)
- MIC (Salmonella): 250 µg/mL (≈ 682 µM)
- MIC (Streptococcus pyogenes): 16 µg/mL (≈ 43.7 µM)
- MIC (Staphylococcus aureus [4]): 62 µg/mL (≈ 169 µM)
